From ChEMBL document CHEMBL1144319, “Design, synthesis, and evaluation of oxazole transthyretin amyloidogenesis inhibitors” (Bioorg Med Chem Lett, 2005)

Target: Transthyretin (Homo sapiens) (UniProt P02766)
Experiment: Binding selectivity to transthyretin in human blood plasma after 24 hincubation with 10.8 uM inhibitor
Assay type: cell-free

| Molar equivalence bound | SMILES |
| --- | --- |
| 0.49 | CCc1oc(-c2cc(Cl)cc(Cl)c2)nc1C(=O)O |
| 0.68 | O=C(O)c1nc(-c2cc(Cl)cc(Cl)c2)oc1C(F)(F)F |
